Reference: patent publication US20220226508A1, “METHODS AND COMPOSITIONS FOR TREATING EPILEPSY” (THE REGENTS OF THE UNIVERSITY OF CALIFORNIA, priority 2019, published 2022)
Entries after “also recorded” stand apart in the source; their conditions may differ. Where two headings read alike, the source gives them in different places.

Legend:
[1] = biological target: T1, human 5-HT2AR (Homo sapiens, UniProt P28223); experiment: biochemical; type: binding
T1 construct: expressed in transfected cells
Experimental: (§1) Receptor Binding Assays. In vitro binding assay and Ki data were performed by the US National Institute of Mental Health Psychoactive Drug Screening Program (NIMH PDSP). Drugs were screened against recombinant, stably expressed human 5-HT2AR, 5-HT2BR, 5-HT2CR and H1. For specific binding assays please refer to detailed procedures at https://pdspdb.unc.edu/pdspWeb/ (Besnard, J. et al., Nature, 492, 215-220, 2012).

[2] = biological target: T2, human 5-HT2BR (Homo sapiens, UniProt P41595); experiment: biochemical; type: binding; conditions: for specificity / selectivity for 5-HT2BR over other 5-HT2R subtypes: radioligand binding
T2 construct: expressed in transfected cells
Experimental: as §1

[3] = biological target: T3, human 5-HT2CR (Homo sapiens, UniProt P28335); experiment: Radioligand binding assay (NIMH PDSP), 5-HT2CR
T3 construct: expressed in transfected cells
T3 sequence (P28335 33-458): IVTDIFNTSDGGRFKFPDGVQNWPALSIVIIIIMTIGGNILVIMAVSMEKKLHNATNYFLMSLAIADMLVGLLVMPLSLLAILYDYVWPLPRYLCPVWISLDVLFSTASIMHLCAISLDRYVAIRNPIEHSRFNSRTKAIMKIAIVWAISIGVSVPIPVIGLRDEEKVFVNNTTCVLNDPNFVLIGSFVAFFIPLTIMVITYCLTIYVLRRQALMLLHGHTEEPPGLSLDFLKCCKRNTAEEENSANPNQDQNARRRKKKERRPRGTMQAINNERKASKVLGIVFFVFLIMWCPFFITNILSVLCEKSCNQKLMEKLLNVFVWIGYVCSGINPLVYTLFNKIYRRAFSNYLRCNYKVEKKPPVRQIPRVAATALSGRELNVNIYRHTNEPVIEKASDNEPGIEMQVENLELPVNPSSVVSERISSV
Experimental: as §1

[4] = test system: scn1lab mutant zebrafish; experiment: Locomotion assay of high-velocity seizure-like swim behavior; type: in vivo, zebrafish (Danio rerio); conditions: for suppression of seizure-like swim behavior (change in mean velocity): independently resynthesized compounds retested at 10, 50, 100 and 250 μM, 30 and 90 min exposure, threshold ≥40%; for suppression of seizure-like swim behavior (change in mean swim velocity): initial library screen at 100 μM and 250 μM, 5 dpf larvae, threshold reduction ≥40%
Excerpt: Zebrafish maintenance. Zebrafish were raised under standard laboratory conditions in accordance with requirements outlined in the Guide for the Care and Use of Animals (ebrary Inc., 2011) and experiments were approved by the Institutional Animal Care and Use Committee (protocol #AN108659-03). Embryos were obtained by natural spawning of scn1lab (didy^s552) heterozygous animals that had been outcrossed to TL strain. Homozygous scn1lab mutants (n=2500) have dispersed melanosomes and appear visibly darker by 3 dpf compared to WT larvae.
(§2) Seizure monitoring. At 5 dpf individual zebrafish larvae were placed into a single well of a clear flat-bottomed 96-well microplate containing embryo media. Larvae were selected randomly as sex determination is not possible at this stage of development. All drug screening experiments were conducted in an unbiased manner by investigators blinded to the test compounds and all files coded for post hoc analysis. Microplates were placed inside the DanioVision and acclimated for 20 min at room temperature. Locomotion plots were obtained for each well at a recording epoch of 10 min using EthoVision XT software (DanioVision, Noldus Information Technology). Seizure scoring was performed using the following three-stage scale established for pentylenetetrazole-induced seizures: Stage 0, no or very little swim activity; Stage I, increased, brief bouts of swim activity; Stage II, rapid “whirlpool-like” circling swim behavior; and Stage III, paroxysmal whole-body clonus-like convulsions, and a brief loss of posture. WT fish are typically scored at Stage 0 or I. Plots were analyzed for distance travelled (in millimeters) and mean velocity (in millimeters per second). After 90 mins of drug exposure larvae were examined for toxic side-effects. Compounds that decreased or stopped the larva heartbeat, or reduced or eliminated the escape response when touched, were considered toxic.
Statistics. Data are presented as the mean±standard error of the mean (SEM), unless otherwise stated. For behavior analysis, the threshold for a change in mean swim velocity ≥40% (>1.5×SD of 250 control treated scn1lab) is considered significant. For comparison between more than two groups one-way ANOVA analysis was used. […] Differences considered statistically significant are indicated with asterisks (*P<0.05; **P<0.01).

[5] = test system: scn1lab mutant zebrafish; experiment: Local field potential (LFP) electrophysiology of electrographic seizure events; type: in vivo, zebrafish (Danio rerio); conditions: 100 μM; 10 min LFP recording, 5 dpf larvae
Experimental: For electrophysiology studies, zebrafish larvae were anesthetized with cold and immobilized in 1.2% agarose; local field potential (LFP) recordings were obtained from forebrain or optic tectum structures using a single-electrode approach, as previously described (Baraban, S. C. et al., Neuroscience, 131, 759-768, 2005). Agarose-embedded LFP recording sessions of 10 min were obtained at 1 kHz. Epileptiform events were identified post hoc and defined as multi-spike or poly-spike upward or downward membrane deflections greater than 3× baseline noise level and 150-250 ms in duration (interictal-like) or greater than 5× baseline noise, multi-spike and >500 ms in duration (ictal-like); both events were counted using threshold detection settings in Clampfit (Molecular Devices; Sunnyvale, Calif.). During electrophysiology experiments larvae were continuously monitored for blood flow and heart rate using an Axiocam digital camera at video frame rate.
Monitoring electrographic brain activity to confirm seizure suppression is an essential assay to eliminate false positives from behavioral testing (Griffin, A. et al., Frontiers in Pharmacology, 9, 2018). By placing a microelectrode into a visually identified brain region of an agar-immobilized zebrafish larval, stable local field potential (LFP) recordings can be monitored for several hours (Baraban, S. C. et al., Nat Commun, 4, 2410, 2013). At 5 dpf LFP recordings of scn1Lab zebrafish larvae show an average of 250 abnormal electrographic seizure events during a 10 min recording epoch.

[6] = biological target: human H1 receptor (Homo sapiens, UniProt P35367); experiment: Radioligand binding assay (NIMH PDSP), H1; parameters: expressed in transfected cells
Experimental: as §1

[7] = test system: scn1lab mutant zebrafish; experiment: Toxicity in larvae after 90 min drug exposure (heartbeat, escape response); type: in vivo, zebrafish (Danio rerio); conditions: 250 μM
Experimental: as §2

[8] = test system: human 5-HT2R; experiment: Radioligand binding assays (NIMH PDSP), 5-HT2R subtypes together; conditions: 5-HT2AR, 5-HT2BR, 5-HT2CR
Experimental: Receptor Binding Assays. In vitro binding assay and Ki data were performed by the US National Institute of Mental Health Psychoactive Drug Screening Program (NIMH PDSP). Drugs were screened against recombinant, stably expressed human 5-HT2AR, 5-HT2BR, 5-HT2CR and H1.

[9] = clemizole analogs, recombinant human receptor, read-out: binding affinity (Ki) 5-HT2BR
[10] = clemizole analogs, recombinant human receptor, read-out: binding affinity (Ki) H1
[11] = read-out: binding affinity (Ki) 5-HT2AR
[12] = read-out: binding affinity (Ki) 5-HT2CR
[13] = read-out: binding affinity (Ki) 5-HT2BR
[14] = read-out: binding affinity (Ki) H1

T1 sequence (P28223 whole entry): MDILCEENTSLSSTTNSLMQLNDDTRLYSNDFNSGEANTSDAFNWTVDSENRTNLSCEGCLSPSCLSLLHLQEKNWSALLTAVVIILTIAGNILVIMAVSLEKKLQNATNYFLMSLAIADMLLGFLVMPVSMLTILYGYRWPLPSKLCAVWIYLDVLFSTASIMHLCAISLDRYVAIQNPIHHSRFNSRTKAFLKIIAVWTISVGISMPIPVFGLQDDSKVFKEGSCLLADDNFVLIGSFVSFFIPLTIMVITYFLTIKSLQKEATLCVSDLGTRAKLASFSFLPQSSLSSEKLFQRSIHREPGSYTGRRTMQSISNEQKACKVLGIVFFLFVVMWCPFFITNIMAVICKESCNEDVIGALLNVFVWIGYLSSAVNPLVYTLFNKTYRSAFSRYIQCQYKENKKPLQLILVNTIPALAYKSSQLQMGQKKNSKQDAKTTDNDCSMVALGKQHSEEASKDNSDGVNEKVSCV
T2 sequence (P41595 whole entry): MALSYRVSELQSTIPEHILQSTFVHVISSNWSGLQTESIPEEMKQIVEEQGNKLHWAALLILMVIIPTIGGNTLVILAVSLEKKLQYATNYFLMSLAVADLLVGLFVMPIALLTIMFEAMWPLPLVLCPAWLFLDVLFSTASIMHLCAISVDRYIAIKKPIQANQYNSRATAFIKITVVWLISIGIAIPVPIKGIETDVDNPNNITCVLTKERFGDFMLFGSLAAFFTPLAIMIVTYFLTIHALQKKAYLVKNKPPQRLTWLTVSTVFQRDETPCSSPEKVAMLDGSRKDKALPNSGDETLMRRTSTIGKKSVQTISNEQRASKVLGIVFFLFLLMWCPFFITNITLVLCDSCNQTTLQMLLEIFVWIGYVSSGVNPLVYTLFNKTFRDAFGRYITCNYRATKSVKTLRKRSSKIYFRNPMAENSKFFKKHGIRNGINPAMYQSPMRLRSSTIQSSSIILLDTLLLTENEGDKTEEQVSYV
Chain of human H1 receptor (P35367 whole entry): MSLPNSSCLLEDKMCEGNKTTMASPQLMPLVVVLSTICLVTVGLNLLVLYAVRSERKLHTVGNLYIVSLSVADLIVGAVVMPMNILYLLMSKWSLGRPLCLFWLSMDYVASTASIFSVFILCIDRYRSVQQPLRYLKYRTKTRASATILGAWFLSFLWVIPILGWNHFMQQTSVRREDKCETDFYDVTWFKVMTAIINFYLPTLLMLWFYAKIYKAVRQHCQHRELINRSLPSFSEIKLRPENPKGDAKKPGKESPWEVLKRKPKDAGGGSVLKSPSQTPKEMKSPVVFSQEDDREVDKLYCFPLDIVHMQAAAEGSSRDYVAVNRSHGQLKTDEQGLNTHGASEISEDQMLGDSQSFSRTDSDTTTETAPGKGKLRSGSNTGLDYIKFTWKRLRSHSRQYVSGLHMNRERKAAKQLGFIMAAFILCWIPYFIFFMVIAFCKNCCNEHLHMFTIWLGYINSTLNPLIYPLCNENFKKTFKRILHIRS

| Structure (SMILES) | Ki [1] | Ki [2, 9] | specificity / selectivity for 5-HT2BR over other 5-HT2R subtypes [2] | Ki [3] | suppression of seizure-like swim behavior (change in mean velocity) [4] | suppression of seizure-like swim behavior (change in mean swim velocity) [4] | frequency of electrographic seizure (epileptiform) events [5] | Ki [6, 10] | Ki [1, 11] | Ki [3, 12] | Ki [2, 13] | binding to any human 5-HT2R [8] | Ki [6, 14] | further results |
| --- | --- | --- | --- | --- | --- | --- | --- | --- | --- | --- | --- | --- | --- | --- |
| c1ccc2c(c1)nc(CN1CCCC1)n2CC1CCCCC1 [Compound 4, 1-(Cyclohexylmethyl)-2-[(pyrrolidin-1-yl)methyl]-1H-benzimidazole] | > 10000 nM | 612 nM | specificity for 5-HT2BR over other 5-HT2R subtypes; also recorded: significant preference for 5-HT2BR | > 10000 nM | reduced the high-velocity seizure-like swim behavior | effective in suppressing | significant changes in the frequency of events; also recorded: significant suppression of electrographic seizure activity | 153 nM |  |  |  |  |  |  |
| FC(F)(F)c1ccc(Cn2c(CN3CCCC3)nc3ccccc32)cc1 [Compound 6, 2-[(Pyrrolidin-1-yl)methyl]-1-{[4-(trifluoromethyl)phenyl]methyl}-1H-benzimidazole] |  | 285 nM | specificity for 5-HT2BR over other 5-HT2R subtypes; also recorded: significant preference for 5-HT2BR |  | reduced the high-velocity seizure-like swim behavior | effective in suppressing | significant changes in the frequency of events; also recorded: significant suppression of electrographic seizure activity | 16 nM | > 10000 nM | > 10000 nM |  |  |  | Ki ([2]; clemizole analogs, recombinant human receptor, listed as Comp. 6, read-out: binding affinity (Ki) 5-HT2BR): 258 nM |
| Clc1ccc(Cn2ccnc2CN2CCCC2)cc1 [Compound 9, 1-[(4-Chlorophenyl)methyl]-2-[(pyrrolidin-1-yl)methyl]-1H-imidazole] |  |  |  |  |  | effective in suppressing |  | 29 nM |  |  |  |  |  | Ki ([3]; clemizole analogs, recombinant human receptor, read-out: binding affinity (Ki) 5-HT2CR): 447 nM; toxicity after 90-min exposure [7]: toxic |
| N#Cc1cccc(Cn2c(CN3CCCC3)nc3ccccc32)c1 [Compound 10] |  |  |  |  |  |  |  |  | > 10000 nM | > 10000 nM | > 10000 nM | no significant binding | 351 nM |  |
| c1ccc2c(c1)nc(CN1CCCC1)n2CC1CCOCC1 [Compound 15] | > 10000 nM |  |  | > 10000 nM |  |  |  |  |  |  |  | no significant binding |  | Ki [2]: > 10000 nM; Ki [6]: 865 nM |
| FC1(F)CCC(Cn2c(CN3CCCC3)nc3ccccc32)CC1 [Compound 17] |  |  |  |  |  |  |  |  | > 10000 nM | > 10000 nM | > 10000 nM | no significant binding | 137 nM |  |
